These results are taken from US5391555A, “Methods for treating inflammatory bowel disease with leukotriene synthesis inhibitors” (Miles Inc., priority 1993, dated 1995).

One test has as its system human bronchial muscle. Put plainly: human bronchial muscle contraction stimulated by anti-human IgE. The test is classed as cell-based. As to conditions: for pIC50: contraction stimulated by anti-human IgE (1/1000), read-out: ED50 human bronchial muscle. The method, then:
For the measurement of human bronchial muscle contraction, bronchial rings were obtained from patients undergoing surgical resection of the lungs typical for lung cancer. The muscle rings were set up in organ baths under an initial load of 3 g and contracted with 100 μM acetylcholine in Tyrode's solution to provide a standardized contraction. The organs were then washed until they returned to the baseline tension in Tyrode's solution containing atropine 1 μM, indomethacin 3 μM and polaramine 1 μM at 37° C.
Contraction was stimulated by the treatment of the muscle strips with anti-human IgE (1/1000) with or without LSI. The intensity of the contractions were expressed as the percentage of the acetylcholine-inducedcontraction. The percentage of inhibition by the LSI was calculated from the ratio of the relative contractions. The activity of several of the well known LSIs of other structural classes (Zileuton & MK886) are compared below with the quinolines of the present invention.

Another test has as its system edema of the mouse ear. Put plainly: Mouse Ear Inflammation Test (arachidonic acid-induced edema). The test is classed as in vivo. As to conditions: oral, 60 minutes before arachidonic acid, swelling at 30 minutes, averaged over several experiments, read-out: Edema formation - ED50. The method, then:
Because it is known that leukotrienes are the major mediators of the edema which follows the application of arachidonic acid on the skin of the mouse ear and because the human clinical trials have implicated leukotrienes in the pathology of Inflammatory Bowel Disease (IBD), the mouse ear inflammation test can be used as a model to predict efficacy in IBD.
In this test edema is induced by the topical application of 10 μl of a 20% arachidonic acid solution on the mouse ear. 60 minutes before arachidonic acid application the animals were treated orally with compound or vehicle. 30 minutes after the induction of inflammation the swelling of the ear was measured. The results averaged over several experiments are shown below.

Test [1] concerns LTB4 / human blood polymorphonuclear leukocytes (PMN). Put plainly: response of human blood polymorphonuclear leukocytes (PMN): A23187-stimulated LTB4 in human whole blood. The class given is cell-based. As to conditions: Leukocyte, 0.5 h, LTB4, 30 μM ionophore A23187, 30 min, 37° C., read-out: ED50 human whole blood. The method, then:
For evaluation of the response of human blood polymorphonuclear leukocytes (PMN), 0.5 ml aliquots of human blood with heparin as the anticoagulant are preincubated for 10 minutes with 2 μl dimethylsulfoxide (DMSO) alone or with DMSO containing the compound to be tested (shaken in water bath at 37° C.).
The PMN are then stimulated with a final concentration 30 μM of the ionophore A23187 for 30 minutes at 37° C. The reaction is terminated with 1 ml methanol. The incubate is cooled 20 minutes in an ice bath, vortexed, then centrifuged at 13,000 g.
The amount of LTB4 present in the removed supernatant is analysed by HPLC and/or radioimmune assays.

Another test has as its system LTB4. Put plainly: TNBS-induced colitis in rats: LTB4 synthesis by excised colonic tissue. The class given is in vivo, Male Wistar rats. As to conditions: 30 and 100 mg/kg orally bid, 7 days; tissue incubated in vitro 20 minutes. The method, then: (§1) A colitis resembling human ulcerative colitis can be induced in rats by the intracolonic infusion of trinitrobenzene sulfonic acid (Wallace et al., 1990, Am J Physiol. 258:G527-34).
(§2) Male Wistar rats were lightly anesthetized with ether, and a 2.3 mm rubber cannula inserted into the lumen of the colon via the anus. The cannula was advanced so that the tip was approximately 8 cm proximal to the anus. Colitis is induced by the administration of 0.25 ml of 50% ethanol (vol/vol) containing 30 mg of 2,4,6-trinitrobenzene sulfonic acid (TNB) through the cannula. After instilling the TNB-ethanol solution, the cannula was left in place for a few seconds then gently removed.
(§3) Animals were sacrificed at various time intervals after the administration of TNB-ethanol for examination of the level of LTB4 in the tissue and for histological examination.
(§4) R-(-)-2-cyclopentyl-2-[4-(2-quinolinyl-methoxy)-phenyl]-acetic acid, at doses of 30 and 100 mg/kg or placebo is administered orally to these animals bid beginning 2 hours before induction of colitis and continuing for the next 7 days. Two hours after the administration of the test compound, animals are sacrificed and samples of the grossly inflammed colonic tissue are excised and incubated in vitro for 20 minutes.

Another test concerns bronchodilator in man. As to conditions: compared with prediction from inhibition of neutrophil-dependent LTB4 synthesis at blood concentration; cited from earlier work.
For test [2], the system named is TNBS-induced colitis in rats. Put plainly: TNBS-induced colitis in rats: colonic damage. As to conditions: 30 and 100 mg/kg orally bid, 7 days; 14 days following induction; vs placebo. The class given is in vivo, Male Wistar rats. The method, then: as §1, §2, §3
R-(-)-2-cyclopentyl-2-[4-(2-quinolinyl-methoxy)-phenyl]-acetic acid, at doses of 30 and 100 mg/kg or placebo is administered orally to these animals bid beginning 2 hours before induction of colitis and continuing for the next 7 days. Two hours after the administration of the test compound, animals are sacrificed and samples of the grossly inflammed colonic tissue are excised and incubated in vitro for 20 minutes. […]

For the next test, the system named is TxB2. Put plainly: TNBS-induced colitis in rats: TxB2 synthesis by excised colonic tissue. As to conditions: 30 and 100 mg/kg orally bid, 7 days; tissue incubated in vitro 20 minutes. The class given is in vivo, Male Wistar rats. The method, then:
as §1, §2, §3, §4

Test [3] concerns Dextran Sulfate-induced colitis in mice. Description: Dextran Sulfate-induced colitis in mice. The class given is in vivo. As to conditions: 10 mg/kg or 30 mg/kg orally bid; 5% dextran sulfate in drinking water. From the text:
Mice, when provided 5% high molecular weight dextran sulfate in their drinking water for 5-7 days, develop an acute colitis with diarrhea, gross rectal bleeding, and weight loss (Okayasu et al., 1990, Gastroenterol, 98:694-702).

pIC50: −log10 of the molar value.

As usually defined, the ED50 is the dose at which the effect has come halfway, by size or by number of responders. What is called inhibition is the relative decrease from the control value, in per cent.

For the compound `CC(C)Cc1cc(C(C(=O)O)C2CCCCCC2)ccc1OCc1ccc2ccccc2n1` (single isomer, unassigned; (-)) [Formula III, (-)-2-cycloheptyl-2-[3-isobutyl-4-(2-quinolinyl-methoxy)-phenyl]-acetic acid], the values for the pIC50 (in the test with human bronchial muscle; in test [1]) were 6.00 and 5.52, respectively. Also, the median effective dose (ED50) in the test on edema of the mouse ear came out at 12.5 mg/kg.

For the compound `O=C(O)C(O)(c1ccc(OCc2ccc3ccccc3n2)cc1)C1Cc2ccccc2C1` (single isomer, unassigned; (-)) [Formula IV, (-)-2-hydroxy-2-(2-indanyl)-2-[4-(2-quinolinyl-methoxy)-phenyl]-acetic acid], the pIC50 in the test on human bronchial muscle was 7.00; in test [1], 5.35. In addition, the ED50 with edema of the mouse ear came to 15 mg/kg.

`O=C(O)[C@@H](c1ccc(OCc2ccc3ccccc3n2)cc1)C1CCCC1` [Formula I, R-(-)-2-cyclopentyl-2-[4-(2-quinolinyl-methoxy)-phenyl]-acetic acid]: the “synthesis of LTB4 in culture supernatants of inflamed colonic tissue” value in the test on LTB4 is recorded as “markedly inhibited”. In addition, the pIC50 in the test on human bronchial muscle was 6.10. The “activity as a bronchodilator in man” value in the test on bronchodilator in man is “considerably greater than would have been predicted”. Moreover, in test [2], the “frequency and extent of the ulcerations” value is “reduces both the frequency of adhesions and the frequency and extend of the ulcerations”; the frequency of adhesions result is reported as “reduces both the frequency of adhesions”. The ED50 with edema of the mouse ear amounted to 48.7 mg/kg. The “synthesis of TxB2 in culture supernatants of inflamed colonic tissue” value in the test on TxB2 is on record as “not of TxB2”. In test [1], the pIC50 was 4.77.

As to `CS(=O)(=O)NC(=O)[C@@H](c1ccc(OCc2ccc3ccccc3n2)cc1)C1CCCCCC1` [Formula II, R-(-)-2-cycloheptyl-N-methylsulfonyl-2-[4-(2-quinolinyl-methoxy)-phenyl]-acetamide], the pIC50 with human bronchial muscle was 6.10. Also, the ED50 in the test with edema of the mouse ear was found to be 5.2 mg/kg. Besides, in test [1], the pIC50 was 5.96. Besides, in test [3], the “occult blood in the stool” value was “reduction in occult blood in the stool”, the stool consistency entry is listed as “improvement in stool consistency”, the symptoms of colitis entry was “decrease in the symptoms of colitis” and the weight loss entry is “reduction in weight loss”.

Consider `CC(C)c1ccc2c(c1)c(SC(C)(C)C)c(CC(C)(C)C(=O)O)n2Cc1ccc(Cl)cc1` [MK886, reference compound], for which, in the test with human bronchial muscle (@ μM (concentration not given), anti-human IgE (1/1000)), the “percentage of inhibition, human bronchial muscle” value is reported as 0-39%. In addition, the ED50 in the test with edema of the mouse ear is approximately 100 mg/kg. Besides, the pIC50 in test [1] is 6.37.

In the case of `CC(c1cc2ccccc2s1)N(O)C(N)=O` (stereo not drawn) [Zileuton, reference compound], the inhibition at 1 µM in the test with human bronchial muscle (@ 1 μM, anti-human IgE (1/1000), read-out: percentage of inhibition, human bronchial muscle) was found to be 4%. The 50% effective dose (ED50) in the test on edema of the mouse ear was determined as 47.4 mg/kg. Moreover, the pIC50 in test [1] is 6.16.
